The source of these data is patent US11059878B2, “Therapeutic targeting of SET1B/compass pathway for treating cancers” (Northwestern University, priority 2016, dated 2021).

The conditions of data set [1]: cited from earlier work.
For data set [2] the following is noted: mice treated with 50 mg/kg AdipoRon; cited from earlier work.
The next data set has as its system SET1B. In words: SET1B protein level by western blot after AdipoRON treatment. The settings on record: MDA-MB-231 cells, various concentrations for 24 hours. It counts as cell-based, human. On the procedure:
FIG. 13. Depletion of AdipoR1 by CRISPR-CAS9 partially rescued cell death induced by SET1B depletion. A) Design of CRIPSR-Cas9 targeting ADIPOR1 gene locus. B) PCR was performed for genotyping of AdipoR1 wildtype and deleted cells. C) Total RNA was extracted from AdipoR1-WT and AdipoR1-KO cells and subjected to RNA-seq, three replicates. Representative tracks of AdipoR1 gene are shown. D) SET1B was further knocked down in ADIPOR1-WT and ADIPOR1-KO cells, respectively. After puromycin selection for 48 hours, 1×10^5 cells were seeded in 6-well plate, the cell viability of SET1B knocked down cells was determined by cell counting. E) The cells from panel C were seeded in 6-well plate (1×10^4) and grown for one week before crystal violet staining. F) Quantification of crystal violet staining was determined as described in materials section. n=4, Student's t test was used for statistical analysis. **P<0.01; *P<0.05. Error bars represent sd. […] H) Cell morphology of GFP or GFP-AdipoR1 inducible cell lines after DMSO or Dox treatment, n=3. I) MCF7 cells were seeded in 6-well plates at the concentration of 500 cells per well. The cells were treated with either DMSO or AdipoRON (10 μM) for three weeks, and the colonies were stained with crystal violet. J) MDA-MB-231 cells were treated with various concentrations of AdipoRON for 24 hours. The protein level of SET1B was determined by western blot. […]

For the next data set, the system named is LM2 cells. In words: LM2 cell fat pad xenograft in nude mice, treatment assay. In kind it is in vivo. On the procedure: (§1) FIG. 6. Targeting AdipoR1 signaling in human TNBC. A) MDA-MB-231, MDA-MB-468 and MCF7 cells were infected with lentiviruses inducibly expressing either GFP or GFP-ADIPOR1. After neomycin selection, the stably transfected cells were treated with DMSO or doxycycline (DOX). The induced GFP or GFP-AdipoR1 was determined by western blot in three cell lines, n=3. B) The proliferation ability of GFP or GFP-ADIPOR1 inducible cell lines were determined by cell counting, n=3, Student's t test was used for statistical analysis. **P<0.01; *P<0.05. Error bars represent sd. C) The GFP or GFP-ADIPOR1 inducible cell lines were seeded in 6-well plates at the concentration of 4×10^4 living cells per well. The cells were then treated with DMSO or doxycycline. The cell survival was shown six days after doxycycline treatment by crystal violet staining. D) Quantification of crystal violet staining was determined as described in materials section. n=4, Student's t test was used for statistical analysis. **P<0.01; *P<0.05. Error bars represent sd. E) MDA-MB-231, MDA-MB-468, and LM2 cells were seeded in 6-well plates at the concentration of 200 cells per well. […] F) Quantification of crystal violet staining was determined as described in materials section. n=4, Student's t test was used for statistical analysis. **P<0.01; *P<0.05. […] They were treated with either PBS or AdipoRon (50 mg/kg) for 10 times, and the tumor size (G) and animal survival (H) was monitored. Tumor growth was measured two weeks after inoculation (n=7). […]
FIG. 14. […] They were treated with either PBS or AdipoRon (50 mg/kg and 100 mg/kg, respectively) for 10 times, and the tumor size was monitored. Tumor growth was measured two weeks after inoculation (n=8). […]
Animal experiments. […] Tumor growth was monitored every other day two weeks after inoculation. […] They were treated with either PBS or AdipoRon (50 mg/kg) for 10 times, and the tumor size (G) and animal survival (H) was monitored. Tumor growth was measured two weeks after inoculation.

In data set [3] the test system is MDA-MB-231, MDA-MB-468, and LM2 cells. As to the kind of experiment: Colony formation of triple-negative breast cancer lines, crystal violet staining. In kind it is cell-based, human. On the procedure: as §1, with “sd.” for “sd. E) MDA-MB-231, MDA-MB-468, and LM2 cells were seeded in 6-well plates at the concentration of 200 cells per well.”

In the case of `O=C(COc1ccc(C(=O)c2ccccc2)cc1)NC1CCN(Cc2ccccc2)CC1` [AdipoRon], the toxicity in vivo entry in data set [1] was “low toxicity”. Further, in data set [2], the plasma concentration is 11.6 µM. In addition, in the data set with SET1B, the SET1B protein level entry is “does not affect”. In addition, the “drug effect (tumor size) by intraperitoneal injection” value with LM2 cells (intraperitoneal injection, 50 mg/kg and 100 mg/kg, 10 times) was “consistent result”. The “tumor size / tumor growth” value in the data set on LM2 cells (oral 50 mg/kg, started 12 days after transplantation) is on record as “significantly reduced”. Moreover, the “animal survival / lifespan” value with LM2 cells (oral 50 mg/kg, started 12 days after transplantation, 50 mg/kg) is reported as “significantly increased”. Moreover, the “anti-tumor effect in vitro” value in data set [3] (10 μM) is “dramatic anti-tumor effect”. Also, the colony formation ability result in data set [3] (AdipoRON 10 μM for three weeks, multiple triple-negative breast cancer lines, 200 cells per well) is recorded as “significantly inhibited”.
